Experimental findings from US8846012B2, “Melanin production inhibitor” (Pola Chemical Industries Inc., priority 2008, dated 2014) are described below.

Values after ≈ are worked out from the molar mass of the structure shown. Like-named read-outs stand apart in the source and are kept apart here.

Experiment [1] deals with Trichopyton mentagrophytes (ATCC18748). As to the kind of experiment: Measurement of antimycotic activity (Alamar Blue growth inhibition of dermatophytes). It counts as cell-based. The following applies: for growth inhibitory effect on Trichopyton mentagrophytes (in words): added at a concentration of 100 μg/mL; for MIC80: read-out: MIC80 Concentration; for inhibition at 0.1563 µg/mL / inhibition at 0.3125 µg/mL / inhibition at 0.625 µg/mL / inhibition at 1.25 µg/mL / inhibition at 2.5 µg/mL / inhibition at 5 µg/mL / inhibition at 10 µg/mL / inhibition at 100 µg/mL: read-out: Growth inhibition rate. The protocol: 10.4 g of RPMI1640 (manufactured by SAFC Biosciences) were dissolved in 900 mL of distilled water, and 34.53 g of a 0.165 M MOPS buffer (manufactured by DOJINDO LABORATORIES) were added and dissolved by stirring.
Dermatophytes (Trichopyton mentagrophytes (ATCC18748)) were inoculated into a 1/10 Sabouraud Dextrose agar medium (manufactured by DIFCO) and cultured at 28° C. for 14 days, and then a conidial suspension was prepared using 0.1% Tween80-including physiological saline. The suspension was filtered through gauze, and the number of the conidia was counted using a hemocytometer and then adjusted to 2.5×10^5/mL with the RPMI1640 medium. The resultant suspension was used as an inoculum.
Compound 5 and clotrimazole were diluted with the RPMI1640 medium to prepare 0.3125, 0.625, 1.25, 2.5, 5, 10, 20, and 200 μg/mL diluted solutions. The diluted solutions having different concentrations were dispensed into a 96-well flat-bottom microplate in an amount of 100 μL per well, and 80 μL of the inoculum and 20 μL of an Alamar Blue solution (manufactured by Nalgene) were further added thereto. Further, 80 μL of the inoculum and 20 μL of the Alamar Blue solution were added to 100 μL of the RPMI1640 medium in growth control wells, and 20 μL of the Alamar Blue solution was added to 180 μL of the RPMI1640 medium in negative control wells. The microplate was placed in a chamber in which the humidity was kept constant, and culture was started at 27° C., and the cells were observed every 24 hours. 120 hours from beginning of culture, i.e., when the growth control became obviously red (reduced form), absorbance measurement at 570 nm was performed using a microplate reader (SPECTRAMAX 250, manufactured by Molecular Device).
The test compounds were tested at the respective concentrations in triplicate. The growth inhibition rate (%) of each of the test compound-added groups was determined by the following equation based on a value calculated by subtracting an average absorbance value of the negative control from an average absorbance value of the growth control and the test compound-added wells. Further, […] (minimum inhibitory concentration; the minimum concentration at which the growth inhibition rate is 80% or more) was calculated from the growth inhibition rate of each test compound. Growth inhibition rate (%)=[1−(average absorbance value in test compound-added wells-average absorbance value of negative control)/(average absorbance value of growth control-average absorbance value of negative control)]×100
Compound 1, Compounds 3 to 6, Compound 40, Compound 41, triphenylmethylamine, triphenylmethanol, triphenylmethane, aminodiphenylmethane, and clotrimazole were diluted with the RPMI1640 medium to prepare 0.3125, 0.625, 1.25, 2.5, 5, 10, 20, and 200 μg/mL diluted solutions. The diluted solutions having different concentrations were dispensed into a 96-well flat-bottom microplate in an amount of 100 μl, per well, and 80 μL of the inoculum and 20 μl, of an Alamar Blue solution (manufactured by Nalgene) were further added thereto. Further, 80 μl, of the inoculum and 20 μl, of the Alamar Blue solution were added to 100 μL of the RPMI1640 medium in growth control wells, and 20 μL of the Alamar Blue solution was added to 180 μL of the RPMI1640 medium in negative control wells. The microplate was placed in a chamber in which the humidity was kept constant, and then culture was started at 27° C., and the cells were observed every 24 hours. 120 hours from beginning of culture, i.e., when the growth control became obviously red (reduced form), absorbance measurement at 570 nm was performed using a microplate reader (SPECTRAMAX 250, manufactured by Molecular Device).
The test compounds were tested at the respective concentrations in triplicate. […]
On the technique in general: The colour change of resazurin is a common sign of viable cells or microbes.

The test system of experiment [2] is normal human melanocytes. As to the kind of experiment: Melanin production inhibition test using cultured normal human melanocytes (14C-thiouracil incorporation). In kind it is cell-based. Particulars: for activity at 2 µM: addition amount 2.0 μM; for activity at 8 µM: addition amount 8.0 μM; for activity at 3.1 µM: addition amount 3.1 μM; for activity at 5 µM: addition amount 5.0 μM. The protocol:
The inhibitory effect on melanin production of the melanin production inhibitor of the present invention can be measured using thiouracil which is incorporated specifically into cells in a melanin synthesis process in the cells. For example, the amount of melanin production can be measured by measuring an amount of thiouracil incorporated into cells by measuring an amount of radiation with radiolabeled thiouracil.
The inhibitory effect on melanin production of Compound 1 was evaluated using 2-thiouracil (^14C-labeled 2-thiouracil was used in this test) which is incorporated specifically into melanin in an intracellular melanin synthesis process. Complete medium for culture of melanocytes (manufactured by Kurabo Industries Ltd.) was added to 15 wells in a 24-well plate in an amount of 2 mL per well, and normal human melanocytes (manufactured by Kurabo Industries Ltd.) were seeded into the wells at a concentration of 1.5×10^4 cells/cm^2. The cells were cultured in a 5% carbon dioxide atmosphere at 37° C. for 24 hours. Thereafter, the medium in all the wells was exchanged under the following conditions: fresh complete medium for culture of melanocytes (control) was used in three wells; each of complete medium for culture of melanocytes, which including Compound 1 at concentrations of 1.0 μM, 2.0 μM, and 4.0 μM, was used in a total of nine wells including three wells for each concentration; and complete medium for culture of melanocytes, each of which including arbutin (positive control) known as a melanin production inhibitor at a concentration of 0.5 mM (500 μM), was used in the other three wells. Further, 2-[2-^14C]thiouracil (^14C-labeled thiouracil) was added to each of these 15 wells at 0.25×10^−6 Ci (curie). Then, the cells were cultured for further 3 days under the same conditions as the above. After the completion of culture, the culture medium was removed from the wells, and the cells were washed with phosphate buffered physiological saline (PBS) and then separated from the bottoms of the wells with medium including trypsin and EDTA to prepare cell suspensions, followed by centrifugation to collect the cells. The number of the cells was counted using a hemocytometer. Thereafter, the amounts of ^14C-thiouracil in the cells collected from each well (0.25×10^−6 Ci) were measured using a liquid scintillation counter (ALOKA CO., LTD.). The percentages of an amount of radioactivity in the cells cultured in the medium including the test substances with respect to an amount of radioactivity in the cells collected from the well of the control were calculated as amounts of melanin (%). That is, as the amount of radioactivity incorporated into the cells is smaller, the amount of melanin is evaluated to be smaller, i.e., the melanin inhibition effect of the component added is evaluated to be larger.
Inhibitory effects on melanin production of Compounds 2 to 39 (however, the effects of Compound 9 and 15 were not measured) were examined in the same procedure as in Test Example 1.
These were examined in the same procedure as in Test Example 1.
Further, the results of melanin production inhibition by treatment with the respective test compounds, determined in the same procedure as in Test Example 1, are also shown in the table.

Setting [3] is: minimum concentration at which the growth inhibition rate is 80% or more.
Setting [4] is: Homo sapiens, Melanocyte, Table 7, treatment concentration 4 μM, read-out: Amount of melanin.
The mark [5] stands for this setting: Homo sapiens, Melanocyte, Table 2, control = 100%.

Consider `NC(c1ccccc1)c1ccccc1` [Aminodiphenylmethane], for which, in experiment [1], the “growth inhibitory effect on Trichopyton mentagrophytes (in words)” value was “no growth inhibitory effect”. Moreover, in experiment [1] (setting [3]), the MIC80 was above 100 µg/mL. The molecule further showed an activity at 40 µM in experiment [2] (Homo sapiens, Melanocyte, Table 3, addition amount 40 μM, control = 100%) of 36.6 ± 12.8%. The activity at 50 µM in experiment [2] (Homo sapiens, Melanocyte, Table 7, treatment concentration 50 μM, read-out: Amount of melanin) came out at 28.8 ± 2.03%.

Regarding `Clc1ccccc1C(c1ccccc1)(c1ccccc1)n1ccnc1` [Clotrimazole, clotrimazole, reference compound], in experiment [1] (concentration 0.1563 μg/mL, 120 hours), the inhibition at 0.1563 µg/mL was 27%. In addition, in experiment [1] (concentration 0.3125 μg/mL, 120 hours), the inhibition at 0.3125 µg/mL was found to be 53%. Also, the inhibition at 0.625 µg/mL in experiment [1] (concentration 0.6250 μg/mL, 120 hours) was found to be 82.5%. In experiment [1] (concentration 1.2500 μg/mL, 120 hours), the inhibition at 1.25 µg/mL came out at 92.2%. The inhibition at 2.5 µg/mL in experiment [1] (concentration 2.5000 μg/mL, 120 hours) stood at 93.4%. Besides, in experiment [1] (concentration 5.0000 μg/mL, 120 hours), the inhibition at 5 µg/mL was 85.4%. The inhibition at 10 µg/mL in experiment [1] (concentration 10.0000 μg/mL, 120 hours) stood at 92.2%. Also, the inhibition at 100 µg/mL in experiment [1] (concentration 100.0000 μg/mL, 120 hours) was found to be 88.9%. Moreover, the MIC80 in experiment [1] (setting [3]) stood at 0.625 µg/mL (≈ 1.81 µM). Also, the activity at 2.5 µM in experiment [2] (Homo sapiens, Melanocyte, Table 7, treatment concentration 2.5 μM, read-out: Amount of melanin) is 23.2%. In experiment [2] (Table 7, treatment concentration 2.5 μM), this molecule displayed an Amount of melanin of 23.2 ± 2.03 %/control.

With `c1ccc(C(c2ccccc2)(c2ccccc2)n2ccnc2)cc1` [Compound 1, 1-(triphenylmethyl)imidazole], the MIC80 in experiment [1] (setting [3]) was determined as 0.625 µg/mL (≈ 2.01 µM). Moreover, in experiment [2] (1.0 μM Compound 1 compared with 0.5 mM arbutin), the “inhibitory effect of melanin production relative to that of arbutin” value is at least 100 times. Moreover, the activity at 1 µM in experiment [2] (Homo sapiens, Melanocyte, addition amount 1.0 μM, control = 100%, mean ± SD of three samples) was 63.8 ± 3.6%. For the same molecule, the activity at 2 µM in experiment [2] (Homo sapiens, Melanocyte, control = 100%, mean ± SD of three samples) was found to be 37 ± 5.3%. Moreover, the activity at 4 µM turned out to be 29.2 ± 2.9% in experiment [2] (Homo sapiens, Melanocyte, addition amount 4.0 μM, control = 100%, mean ± SD of three samples) and 29.5 ± 2.5% in experiment [2] (setting [4]).

Consider `c1ccc(C(c2ccccc2)(c2ccccc2)N2CCCCC2)cc1` [Compound 5, 1-(triphenylmethyl)piperidine], for which, in experiment [1] (120 h), the inhibition at 0.1563 µg/mL was -4.5%, the inhibition at 0.3125 µg/mL was 8%, the inhibition at 0.625 µg/mL is -2.7% and the inhibition at 1.25 µg/mL was determined as 3.1%. In addition, in experiment [1] (120 h), the inhibition at 2.5 µg/mL was -4.5%, the inhibition at 5 µg/mL was -17.5%, the inhibition at 10 µg/mL is -14.4% and the inhibition at 100 µg/mL was determined as 13.2%. In addition, in experiment [1], the MIC80 is above 100 µg/mL. This molecule returned an activity at 1.5 µM in experiment [2] (Homo sapiens, Melanocyte, Table 2, addition amount 1.5 μM, control = 100%) of 37.7 ± 0.8%. Also, in experiment [2] (setting [4]), the activity at 4 µM came out at 16.8 ± 0.96%.

Turning to `c1ccc(C(c2ccccc2)(c2ccccc2)N2CCCC2)cc1` [Compound 6, 1-(triphenylmethyl)pyrrolidine], in experiment [1], the “growth inhibitory effect on Trichopyton mentagrophytes (in words)” value is on record as “no growth inhibitory effect” and the MIC80 is above 100 µg/mL. In addition, in experiment [2] (setting [5]), the activity at 2 µM came to 32.6 ± 4.1%. The activity at 4 µM in experiment [2] (setting [4]) came to 17.2 ± 0.8%.

For the molecule `CCNC(c1ccccc1)(c1ccccc1)c1ccccc1` [Compound 30, N-(triphenylmethyl)-N-ethylamine], the activity at 8 µM in experiment [2] (setting [5]) is 41.4 ± 0.7%.

`COc1ccc(C(OCCO)(c2ccccc2)c2ccccc2)cc1` [Compound 31, 2-[[diphenyl(4-methoxyphenyl)]methyloxy]ethanol] registered an activity at 3.1 µM in experiment [2] (setting [5]) of 37.6 ± 3.3%.

`COc1ccc(C(OCCO)(c2ccccc2)c2ccc(OC)cc2)cc1` [Compound 32, 2-[bis(4-methoxyphenyl)phenylmethyloxy]ethanol] gave an activity at 3.1 µM in experiment [2] (setting [5]) of 58.8 ± 7.1%.

`COc1ccc(C(NCCO)(c2ccccc2)c2ccccc2)cc1` [Compound 33, 2-[[diphenyl(4-methoxyphenyl)]methylamino]ethanol] registered an activity at 5 µM in experiment [2] (setting [5]) of 67.7 ± 5.1%.

In experiment [2] (setting [5]), `COc1ccc(C(NCCO)(c2ccccc2)c2ccc(OC)cc2)cc1` [Compound 34, 2-[[bis(4-methoxyphenyl)phenyl]methylamino]ethanol] returned an activity at 5 µM of 71.4 ± 1.9%.

Regarding `COc1ccc(C(OCCN)(c2ccccc2)c2ccccc2)cc1` [Compound 35, 2-[[diphenyl (4-methoxyphenyl)]methyloxy]ethylamine], in experiment [2] (setting [5]), the activity at 5 µM is 80.4 ± 8.8%.

`COc1ccc(C(OCCN)(c2ccccc2)c2ccc(OC)cc2)cc1` [Compound 36, 2-[[bis(4-methoxyphenyl)phenyl]methyloxy]ethylamine] gave an activity at 10 µM in experiment [2] (Homo sapiens, Melanocyte, Table 2, addition amount 10 μM, control = 100%) of 71.7 ± 5.1%.

`OCCN(CCO)C(c1ccccc1)(c1ccccc1)c1ccccc1` [Compound 37, N,N-[bis(2-hydroxyethyl)]-N-(triphenylmethyl)amine] yielded an activity at 4 µM in experiment [2] (Homo sapiens, Melanocyte, Table 2, addition amount 4.0 μM, control = 100%) of 69.6 ± 3.9%.

In experiment [2] (setting [5]), `OCC(O)COC(c1ccccc1)(c1ccccc1)c1ccccc1` (stereo not shown) [Compound 38, 1,2-dihydroxy-3-(triphenylmethyloxy)propane] displayed an activity at 8 µM of 75.6 ± 0.2%.

In experiment [2] (setting [5]), `O=C(O)[C@H](CO)NC(c1ccccc1)(c1ccccc1)c1ccccc1` [Compound 39, N-(triphenylmethyl) serine] showed an activity at 8 µM of 54.9 ± 5.5%.

What is called inhibition is the drop in the measured response relative to a control, in per cent.
